Test results published in patent publication US11266663B2, “Treatment of neuropsychiatric disorders with neurosteroids and analogues thereof” (THE BOARD OF TRUSTEES OF THE UNIVERSITY OF ILLINOIS, priority 2017, dated 2022).
Where “and” joins values, the source holds several entries; their conditions need not be identical. Identical values can stand only once. Entries after “also recorded” stand apart in the source; their conditions may differ.

Experiments:
[1] = system: post-partum depression patients; conditions: two-day course of intravenous infusion; cited from earlier work
[2] = system: early and late adolescent SI mice; experiment: Resident-intruder test, aggressive behavior of socially isolated (SI) mice; assay type: in vivo, Swiss-Webster mice; conditions: for reduction in the number of attacks vs. basal value / EC50 dose, decrease of aggression: 60 min before test; for “Non-responders” Early SI mice (%) / “Non-responders” Late SI mice (%): decrease of aggression <=30% vs basal; for EC50 dose, decrease of aggression: i.p.
From the text: Male Swiss-Webster mice (Harlan Breeders) (18-30 g body weight), maintained under a 12-h dark/light cycle with food and water ad libitum were used for all experiments. Mice were housed individually in a cage of dimensions 24 cm×17 cm×12 cm. For these experiments, two mice experimental groups were used for the study of drug effect in different age conditions. The first group was isolated at 21 days (“early adolescent SI mice,” PND 21), while the second group at 45 days (“late adolescent SI mice,” PND 45). The animals were exposed to behavioral testing after 6 weeks of isolation. The vivarium temperature was kept at 24° C. and the humidity near 65%.
[…] All the drugs were dissolved in saline solution containing 0.5% Tween-80 (Sigma Aldrich, St. Louis, Mo., United States), and were injected intraperitoneally (i.p.), 60 min before behavioral tests.
To test aggression, a male intruder mouse of the same strain as the resident mouse, was placed in a resident home cage (24 cm×17 cm×12 cm) and resident-intruder interactions were videotaped for 10 min. Aggressive behavior of SI mice was characterized by an initial pattern of exploratory activity around the intruder, followed by rearing and tail rattle, accompanied within a few seconds by wrestling and/or a violent biting attacks. The total number of wrestling and attacks during the 10 min observation period was measured as previously described (Pinna et al., 2003, 2005), 60 min after drug administration. For every drug studied, SI mice were first exposed to three behavioral sessions, and then the average of basal aggression level for every single SI mouse was calculated; 2 days later, aggression levels following treatment were tested. Treated animals showing a reduction of the number of attacks less than 30% vs. the respective basal control values were considered as “low- to non-responders.”
Results are presented as means±SEMs unless otherwise indicated. Student's t-test, one-way ANOVA and two-way ANOVA repeated measures followed by Bonferroni post hoc test were performed to analyze experimental data; significance was set at p<0.05. EC50 values were calculated from dose-response curves analyzed by the “quantal dose-response: probits test” using the computer program of Tallarida and Murray equipped with a statistical package (Tallarida and Murray, 1987). Statistical comparisons among the different ECsos were performed with the “cohort package software.” (available at cohort.com).

[3] = system: early and late adolescent SI mice; experiment: Locomotor activity test; assay type: in vivo, Swiss-Webster mice; conditions: all doses tested, i.p., 60 min before test, 10 min recording
[4] = system: early and late adolescent SI mice; conditions: i.p., previously established in Pinna and Rasmusson, 2014; cited from earlier work
[5] = early SI mice, single dose 2.5 mg/kg
[6] = early SI mice, single dose, dose not stated (FIG. 5 legend)
[7] = early adolescent SI mice (PND 21)
[8] = late SI mice, single dose 2.5 mg/kg (given in mg)
[9] = late SI mice, single dose, dose not stated (FIG. 5 legend)
[10] = late adolescent SI mice (PND 45)

In the case of `CC(=O)C1CC[C@H]2[C@@H]3CCC4C[C@H](O)CC[C@]4(C)[C@H]3CC[C@]12C` (stereo partly shown) [Allo, allopregnanolone], the “duration of symptom improvement” value [1] is listed as 30 days, the “remission of post-partum depression, patients” value [1] is listed as 70% and the “time to symptom improvement” value [1] is listed as 60 h.

With `C=CCO[C@H]1CC[C@]2(C)C3CC[C@@]4(C)C(CC[C@@H]4C(C)=O)C3CC[C@H]2C1` (stereo partly shown) [BR297] the “difference of anti-aggressive effect, late compared with early SI mice” value (“difference of anti-aggressive effect” for short) ([2]; 2.5 mg/kg i.p., trend, p=0.108) was “+235%”, the “reduction in the number of attacks vs. basal value” (“reduction in the number” for short) ([2]; early SI mice (PND 21), 0.3125 mg/kg i.p.) was −59% and the “reduction in the number” value ([2]; early SI mice (PND 21), 0.625 mg/kg i.p.) was −61%. For the same molecule, the “reduction in the number” value ([2]; early SI mice (PND 21), 2.5 mg/kg i.p.) was −70%, the ““Non-responders” Early SI mice (%)” value ([2]; early SI mice, single dose 0.3125 mg/kg (given in mg)) was 30.0% and the ““Non-responders” Early SI mice (%)” value ([2]; early SI mice, single dose 0.625 mg/kg (given in mg)) was 21.4%. The ““Non-responders” Early SI mice (%)” value ([2]; early SI mice, single dose 2.5 mg/kg (given in mg), 2.5 mg/kg) was 6.25% and 6.3%, the “duration of anti-aggressive effect (time until aggression rebounded to basal values)” value ([2]; early SI mice, single dose 0.3125 mg/kg) was 3 days and the “duration of anti-aggressive effect (time until aggression rebounded to basal values)” value ([2]; early SI mice, single dose 0.625 mg/kg) was 7 days. For the same molecule, the “duration of anti-aggressive effect (time until aggression rebounded to basal values)” value [2, 5] was 7 days, the “duration of anti-aggressive effect (time until aggression rebounded to basal values)” value [2, 6] was 7 days and the “EC50 dose, decrease of aggression” value [2, 7] was 0.25 mg/kg. The “reduction in the number” value ([2]; late SI mice (PND 45), 0.3125 mg/kg i.p.) was −60%, the “reduction in the number” value ([2]; late SI mice (PND 45), 0.625 mg/kg i.p.) was −63% and the “reduction in the number” value ([2]; late SI mice (PND 45), 2.5 mg/kg i.p.) was −91%. The ““Non-responders” Late SI mice (%)” value ([2]; late SI mice, single dose 0.3125 mg/kg (given in mg)) was 18.2%, the ““Non-responders” Late SI mice (%)” value ([2]; late SI mice, single dose 0.625 mg/kg (given in mg)) was 18.2% and the ““Non-responders” Late SI mice (%)” value [2, 8] was 0%. For the same molecule, the “duration of anti-aggressive effect (time until aggression rebounded to basal values)” value ([2]; late SI mice, single dose 0.3125 mg/kg) was 3 days, the “duration of anti-aggressive effect (time until aggression rebounded to basal values)” value ([2]; late SI mice, single dose 0.625 mg/kg) was 9 days and the “duration of anti-aggressive effect (time until aggression rebounded to basal values)” value [2, 9] was 9 days. The “EC50 dose, decrease of aggression” value [2, 10] was 0.25 mg/kg and the “effect on locomotor (exploratory) activity” value (from here on “effect on locomotor”) [3] was “failed to alter locomotion patterns”.

With `C=CCO[C@@H]1CC[C@]2(C)C3CC[C@@]4(C)C(CC[C@@H]4C(C)=O)C3CC[C@H]2C1` (stereo partly shown) [BR351] the “difference of anti-aggressive effect” value ([2]; 5 mg/kg i.p., trend, p=0.0801) was “+179%”, the “reduction in the number” value ([2]; early SI mice (PND 21), 5 mg/kg i.p.) was −56% and the ““Non-responders” Early SI mice (%)” value ([2]; early SI mice, single dose 1 mg/kg (given in mg)) was 50.0%. The ““Non-responders” Early SI mice (%)” value ([2]; early SI mice, single dose 2.5 mg/kg (given in mg)) was 20.0%, the ““Non-responders” Early SI mice (%)” value ([2]; early SI mice, single dose 5 mg/kg (given in mg), 5 mg/kg) was 13.33% and 13.3% and the “duration of anti-aggressive effect (time until aggression rebounded to basal values)” value ([2]; early SI mice, single dose 1 mg/kg) was “rapidly extinguished”. For the same molecule, the “duration of anti-aggressive effect (time until aggression rebounded to basal values)” value [2, 5] was 5 days, the “duration of anti-aggressive effect (time until aggression rebounded to basal values)” value ([2]; early SI mice, single dose 5 mg/kg) was 3 days and the “EC50 dose, decrease of aggression” value [2, 7] was 4.5 mg/kg. The “reduction in the number” value ([2]; late SI mice (PND 45), 5 mg/kg i.p.) was −80%, the ““Non-responders” Late SI mice (%)” value ([2]; late SI mice, single dose 1 mg/kg (given in mg)) was 54.6% and the ““Non-responders” Late SI mice (%)” value [2, 8] was 40.0%. For the same molecule, the ““Non-responders” Late SI mice (%)” value ([2]; late SI mice, single dose 5 mg/kg (given in mg), 5 mg/kg) was 8.33% and 8.3%, the “duration of anti-aggressive effect (time until aggression rebounded to basal values)” value ([2]; late SI mice, single dose 1 mg/kg) was 1 days and the “duration of anti-aggressive effect (time until aggression rebounded to basal values)” value ([2]; late SI mice, single dose 2.5 mg/kg) was 5 days. For the same molecule, the “duration of anti-aggressive effect (time until aggression rebounded to basal values)” value ([2]; late SI mice, single dose 5 mg/kg) was 5 days, the “EC50 dose, decrease of aggression” value [2, 10] was 3.75 mg/kg and the “effect on locomotor” value [3] was “failed to alter locomotion patterns”.

For `CC(=O)[C@H]1CC[C@H]2[C@@H]3CC[C@H]4C[C@](C)(O)CC[C@]4(C)[C@H]3CC[C@]12C` [GNX, ganaxolone, reference compound], the “difference of anti-aggressive effect” value ([2]; 10 mg/kg i.p.) was “+197%”, the “reduction in the number” value ([2]; early SI mice (PND 21), 10 mg/kg i.p.) was −72% and the ““Non-responders” Early SI mice (%)” value ([2]; early SI mice, single dose 10 mg/kg (given in mg), 10 mg/kg) was 25%. The “reduction in the number” value ([2]; late SI mice (PND 45), 10 mg/kg i.p.) was −46%, the ““Non-responders” Late SI mice (%)” value ([2]; late SI mice, single dose 10 mg/kg (given in mg), 10 mg/kg) was 15.38% and 15.4% and the “duration of anti-aggressive effect (time until aggression rebounded to basal values)” value ([2]; late SI mice, single dose 10 mg/kg (EC50 dose)) was 5 days. For the same molecule, the EC50 dose [4] was 10 mg/kg and the “effect on locomotor” value [3] was “failed to alter locomotion patterns”.

In the case of `CCCCCCCCCCCCCCCC(=O)NCCO` [PEA, N-palmitoylethanolamine], the “effect on locomotor” value [3] is reported as “not altered”.

For `CNCC[C@H](Oc1ccc(C(F)(F)F)cc1)c1ccccc1` [S-FLX, S-fluoxetine, reference compound], the “duration of anti-aggressive effect (time until aggression rebounded to basal values)” value ([2]; early SI mice, single dose 0.375 mg/kg) was 1 days, the “duration of anti-aggressive effect (time until aggression rebounded to basal values)” value ([2]; early SI mice, single dose 0.75 mg/kg) was 3 days and the “duration of anti-aggressive effect (time until aggression rebounded to basal values)” value [2, 6] was 3 days. For the same molecule, the “reduction in the number” value ([2]; late SI mice (PND 45), 0.75 mg/kg i.p.) was −52%, the “duration of anti-aggressive effect (time until aggression rebounded to basal values)” value ([2]; late SI mice, single dose 0.375 mg/kg) was 1 days and the “duration of anti-aggressive effect (time until aggression rebounded to basal values)” value ([2]; late SI mice, single dose 0.75 mg/kg) was 3 days. The “duration of anti-aggressive effect (time until aggression rebounded to basal values)” value [2, 9] was 3 days and the “effect on locomotor” value [3] was “did not reduce exploratory activity; also recorded: failed to alter locomotion patterns”.
